# Data from patent publication US6608032B1, “Medicinal compositions” (Takara Shuzo Co., Ltd., priority 1999, dated 2003).
# Where two headings read alike, the source gives them in different places.
# How the values were obtained:
# [1] = system: HL-60 cells; experiment: Proliferation of HL-60 cells with or without hydroxyurea G1 arrest, WST-1; format: cell-based; conditions: read-out: IC50 (concentration at which 50% of the proliferation is inhibited)
# Experimental: HL-60 cells (ATCC CCL-240) were suspended in RPMI 1640 medium (Bio Whittaker, 12-702F) containing 10% fetal calf serum (Gibco) and […] at a concentration of 5×10^5 cells/ml. 20 ml of the suspension was added to a 10-cm Petri dish. The dish was incubated at 37° C. overnight in the presence of 5% CO2 to make the cells arrest at G1 phase. The cells were collected by centrifugation and resuspended in RPMI 1640 medium containing 10% fetal calf serum (Gibco) and 100 μM hydroxyurea at a concentration of 5×10^5 cells/ml. 5 ml of the suspension was added to each well of a 6-well microtiter plate. On the other hand, as cells without the treatment with hydroxyurea, HL-60 cells were suspended in RPMI 1640 medium containing 10% fetal calf serum (Gibco) at a concentration of 1×10^5 cells/ml. 5 ml of the suspension was added to each well of a 6-well microtiter plate. 50 μl of a solution containing agarobiose at a concentration of 80, 60, 40 or 20 mM in water, or 50 μl of a solution containing the agarohexaose at a concentration of 80, 60, 40 or 20 mM in water was added to the well containing the cells treated with hydroxyurea. 50 μl of a solution containing agarobiose at a concentration of 40, 30, 20 or 10 mM in water, or 50 μl of a solution containing agarohexaose at a concentration of 40, 30, 20 or 10 mM in water was added to the well containing the cells without the treatment with hydroxyurea. The plate was incubated for additional 48 hours. Cells collected by centrifuging the culture were suspended in 5 ml of fresh RPMI 1640 medium containing 10% fetal calf serum (Gibco). 100 μl of the suspension was used for measuring the viable cell number using Premix WST-1 Cell Proliferation Assay System (Takara Shuzo, MK400).
# [2] = system: human FGF-β; experiment: FGF-β production from DSEK cells (ELISA); format: cell-based; conditions: DSEK culture supernatant
# Experimental: (§1) 150 μl of a culture supernatant was collected from a well containing a culture of DSEK cells over time at intervals of 24 hours. The effects of agarobiose on the production (expression) of cytokines (human TGF-β, human FGF-β and human IL-10) from the cell were determined using ELISA kits specific for the respective cytokines (from Intergen for human FGF-β and human IL-10; and from Promega for human TGF-β).
# [3] = system: human IL-10; experiment: IL-10 production from DSEK cells (ELISA); format: cell-based; conditions: DSEK culture supernatant
# Experimental: as §1
# [4] = system: DSEK cells; experiment: Growth of DSEK cells (in vitro rheumatoid model), WST-1; format: cell-based, human
# Experimental: DSEK cell is a fibroblast cell line established from a synovial membrane of a human patient with chronic rheumatism and is held at Department of Second Internal Medicine, Integrated Medical Center, Saitama Collage of Medicine as an in vitro rheumatoid model. DSEK cells were cultured in Iscov-MEM medium (IMDM: Gibco-BRL) containing 10% FBS (Bio Whittaker) at 37° C. in the presence of 5% CO2 to saturation of culture vessel. The cells were suspended in the same medium at a concentration of 3×10^4 cells/ml using a trypsin-EDTA solution (Bio Whittaker). 200 μl of the suspension was dispensed into each well of a 96-well microtiter plate (Falcon). […]
# 10 μl of Premix WST-1 (Takara Shuzo, MK400) was added to one of the wells at intervals of 24 hours up to 72 hours after the medium change. The mixture was reacted at 37° C. for 3.5 hours. The degree of cell growth was expressed by a value obtained by subtracting the absorbance at 650 nm (A650) from the absorbance at 450 nm (A450).
# [5] = system: celiac macrophages; experiment: TPA-induced IL-6 production in celiac macrophages; format: cell-based, mouse; conditions: 5 μl of 20, 10 or 5 mM solution per 500 μl; 14 hours; concentration dependent; FIG. 16
# Experimental: 4 ml of RPMI 1640 medium (Bio Whittaker, 12-702F) containing 10% fetal calf serum was intraperitoneally injected into ddy mouse (Japan SLC, female, 7 weeks old) The medium was removed after extensive massage to obtain celiac cells. The celiac cells were suspended in RPMI 1640 medium containing 10% fetal calf serum at a concentration of 10^6 cells/ml. 500 μl of the suspension was added to each well of a 48-well microtiter plate and the plate was incubated at 37° C. for 2 hours in the presence of 5% CO2. Adhesive cells obtained by removing the culture supernatant were used as celiac macrophaaes. 500 μl of fresh Dulbecco's modified Eagle's medium (Bio Whittaker, 12-917F) without Phenol Red containing 10% fetal calf serum and 2 mM L-glutamine was added to each well. 5 μl of 20, 10 or 5 mM aqueous solution of agarobiose obtained in Referential Example 1 and 5 μl of 10 μg/ml aqueous solution of 12-O-tetradecanoylphorbol 13-acetate (TPA, Gibco, 13139-019) were added to the well. The plate was incubated for additional 14 hours, and the culture supernatant was then collected. The content of interleukin 6 (IL-6) in the culture supernatant was measured using enzyme immuno sandwich assay (ELISA; Matched antibody Pair Sample Pak-mouse IL6, Endogen). As a control, a group to which the agarobiose aqueous solution or the TPA aqueous solution was not added was provided. […]
# [6] = system: human TGF-β; experiment: TGF-β production from DSEK cells (ELISA); format: cell-based; conditions: DSEK culture supernatant
# Experimental: as §1
compound,measurement,setting,value
"OCC1OC(OC2C3COC2C(O)C(OC2C(O)C(CO)OC(OC4C5COC4C(O)C(OC4C(O)C(CO)OC(OC6C7COC6C(O)C(O)O7)C4O)O5)C2O)O3)C(O)C(O)C1O (stereo not drawn) [Agarohexaose, agarohexaose]",IC50,"[1]; Homo sapiens, HL-60, 48 h, Cells treated with hydroxyurea (arrested at G1 phase)",383 µM
same,IC50,"[1]; Homo sapiens, HL-60, 48 h, Cells without treatment with hydroxyurea",205 µM
"OC[C@H]1O[C@@H](O[C@H]2[C@H]3OC[C@@H]2OC(O)[C@H]3O)[C@H](O)[C@@H](O)[C@H]1O (mixture of isomers) [Agarobiose, agarobiose]",IC50,"[1]; Cells treated with hydroxyurea (arrested at G1 phase), 48 hours",401 µM
same,IC50,"[1]; Cells without treatment with hydroxyurea, 48 hours",211 µM
same,production of human FGF-β,[2],activities of inhibiting the production
same,production of human IL-10,[3],activities of inhibiting the production
same,Degree of cell growth (A450-650),"[4]; 50 μM, 24 hr",1.00 A450-650
same,Degree of cell growth (A450-650),"[4]; 50 μM, 48 hr",1.49 A450-650
same,Degree of cell growth (A450-650),"[4]; 50 μM, 72 hr",1.27 A450-650
same,Degree of cell growth (A450-650),"[4]; 100 μM, 24 hr",0.88 A450-650
same,Degree of cell growth (A450-650),"[4]; 100 μM, 48 hr",1.87 A450-650
same,Degree of cell growth (A450-650),"[4]; 100 μM, 72 hr",1.26 A450-650
same,Degree of cell growth (A450-650),"[4]; 200 μM, 24 hr",0.89 A450-650
same,Degree of cell growth (A450-650),"[4]; 200 μM, 48 hr",1.50 A450-650
same,Degree of cell growth (A450-650),"[4]; 200 μM, 72 hr",0.93 A450-650
same,Degree of cell growth (A450-650),"[4]; 400 μM, 24 hr",0.87 A450-650
same,Degree of cell growth (A450-650),"[4]; 400 μM, 48 hr",0.52 A450-650
same,Degree of cell growth (A450-650),"[4]; 400 μM, 72 hr",0.47 A450-650
same,Degree of cell growth (A450-650),"[4]; 800 μM, 24 hr",0.54 A450-650
same,Degree of cell growth (A450-650),"[4]; 800 μM, 48 hr",0.45 A450-650
same,Degree of cell growth (A450-650),"[4]; 800 μM, 72 hr",0.56 A450-650
same,IC50,"[4]; 72 hours, read-out: concentration that resulted in the inhibition of the growth of half cells (IC50)",169 µM
same,TPA-induced IL-6 production,[5],suppression of TPA-induced IL-6 production
same,production of human TGF-β,[6],activities of inhibiting the production
